Where two headings read alike, the source gives them in different places.

In one experiment the target is T1, α2A adrenergic receptor (Homo sapiens, UniProt P08913).
T1 sequence (P08913 1-465): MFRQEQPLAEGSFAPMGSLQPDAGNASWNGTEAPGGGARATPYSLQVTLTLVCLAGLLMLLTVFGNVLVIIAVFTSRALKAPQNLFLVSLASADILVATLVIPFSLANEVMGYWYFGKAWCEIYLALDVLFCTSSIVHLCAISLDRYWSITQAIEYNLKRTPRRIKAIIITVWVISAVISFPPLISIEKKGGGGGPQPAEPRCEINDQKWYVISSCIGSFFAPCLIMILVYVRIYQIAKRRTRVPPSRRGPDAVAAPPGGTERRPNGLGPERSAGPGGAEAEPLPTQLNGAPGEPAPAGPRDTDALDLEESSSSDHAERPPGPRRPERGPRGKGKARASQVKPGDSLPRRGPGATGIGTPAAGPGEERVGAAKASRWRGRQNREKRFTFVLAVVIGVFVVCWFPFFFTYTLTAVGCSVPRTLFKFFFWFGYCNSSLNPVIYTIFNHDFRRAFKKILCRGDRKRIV
Put plainly: SelectScreen cell-based GPCR profiling, α2A agonist assay. As to conditions: 5 hours incubation, fluorescence read. The protocol:
(§1) The Compounds of Formulas (III)-(V) were subjected to an in vitro screening against α1A, α2A, and β2 adrenergic receptors using SelectScreen® Cell-based GPCR Profiling Service from Life Technologies. In each of the three agonist assays (α1A, α2A, and β2), cells were thawed and resuspended in Assay Media (DMEM, 10% dialyzed FBS, 25 mM HEPES pH 7.3, 0.1 mM NEAA, 100 U/mL/100 μg/mL Pen/Strep) to a concentration of 312,500 cells/mL. 32 μL of cell suspension (10,000 cells) were added to each well of a 384-well TC-Treated assay plate. Cells in Assay Media were incubated for 16-24 hours in the plate at 37° C./5% CO2 in a humidified incubator. 4 μL of a 10× serial dilution of a control agonist (phenylephrine for α1A; UK 14304 for α2A; isoproterenol for β2) or a Compound III-V were added to appropriate wells of the plate. 4 μL of Assay Media was added to all wells to bring the final assay volume to 40 μL. The plate was incubated for 5 hours at 37° C./5% CO2 in a humidified incubator. 8 μL of 1 μM Substrate+Loading Solution was added to each well and the plate was incubated for 2 hours at room temperature. The plate was read on a fluorescence plate reader.

For another experiment, the target named is β2 adrenergic receptor (Homo sapiens, UniProt P07550). Put plainly: SelectScreen cell-based GPCR profiling, β2 agonist assay. As to conditions: 5 hours incubation, fluorescence read. The protocol:
as §1

The target of a further experiment is T2, α1A adrenergic receptor (Homo sapiens, UniProt P35348).
T2 sequence (P35348 1-466): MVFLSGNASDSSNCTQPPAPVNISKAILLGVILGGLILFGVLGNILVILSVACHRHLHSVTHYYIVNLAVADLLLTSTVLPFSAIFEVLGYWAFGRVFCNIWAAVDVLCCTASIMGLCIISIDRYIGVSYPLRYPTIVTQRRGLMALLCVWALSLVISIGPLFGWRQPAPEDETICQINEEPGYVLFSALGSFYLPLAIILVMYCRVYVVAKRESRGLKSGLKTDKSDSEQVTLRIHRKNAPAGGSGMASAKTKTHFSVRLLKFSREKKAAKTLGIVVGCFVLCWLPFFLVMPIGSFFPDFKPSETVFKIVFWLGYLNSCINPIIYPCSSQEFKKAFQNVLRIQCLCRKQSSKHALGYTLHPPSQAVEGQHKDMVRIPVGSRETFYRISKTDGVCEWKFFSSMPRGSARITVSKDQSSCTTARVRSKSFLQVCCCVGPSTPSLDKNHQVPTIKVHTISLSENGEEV
Nature of the experiment: SelectScreen cell-based GPCR profiling, α1A agonist assay. The conditions noted are these: for selectivity of agonism (α1A and/or α2A EC50 less than 1,000 nM and insignificant activity at β2): classification in words from Table 1 EC50 values, insignificant β2 activity = EC50 greater than about 500 nM. The protocol:
32 μL of cell suspension (10,000 cells) were added to each well of a 384-well TC-Treated assay plate. Cells in Assay Media were incubated for 16-24 hours in the plate at 37° C./5% CO2 in a humidified incubator. […] 4 μL of Assay Media was added to all wells to bring the final assay volume to 40 μL. The plate was incubated for 5 hours at 37° C./5% CO2 in a humidified incubator. 8 μL of 1 μM Substrate+Loading Solution was added to each well and the plate was incubated for 2 hours at room temperature. The plate was read on a fluorescence plate reader.

Where [1] appears, read: agonist assay, 5 hours incubation, fluorescence read, read-out: α1A Activity, EC50.

β2 adrenergic receptor, sequence (P07550 whole entry): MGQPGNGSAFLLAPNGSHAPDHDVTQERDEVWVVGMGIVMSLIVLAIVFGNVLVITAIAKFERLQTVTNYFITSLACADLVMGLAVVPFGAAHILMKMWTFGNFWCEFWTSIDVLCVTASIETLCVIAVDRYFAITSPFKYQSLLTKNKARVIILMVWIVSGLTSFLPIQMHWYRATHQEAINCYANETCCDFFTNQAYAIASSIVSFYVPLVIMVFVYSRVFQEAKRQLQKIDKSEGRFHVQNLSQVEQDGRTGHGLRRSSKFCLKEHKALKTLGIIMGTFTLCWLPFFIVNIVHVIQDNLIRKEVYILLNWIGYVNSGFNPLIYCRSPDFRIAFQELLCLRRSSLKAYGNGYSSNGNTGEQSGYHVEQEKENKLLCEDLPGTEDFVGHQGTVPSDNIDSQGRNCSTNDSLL

For `CC(Oc1ccccc1C1CCCC1)C1=NCCN1` (centres unmarked) [Compound III], the EC50 on α2A adrenergic receptor is 18.7 nM; on β2 adrenergic receptor, more than 6300 nM; on α1A adrenergic receptor, less than 0.119 nM.
In the case of `CC(Oc1ccccc1-c1cccnc1)C1=NCCN1` (centres unmarked) [IV], the EC50 at α2A adrenergic receptor was more than 25000 nM; at β2 adrenergic receptor, more than 25000 nM; on α1A adrenergic receptor (setting [1]), 13 nM. Also, the “selectivity of agonism (α1A and/or α2A EC50 less than 1,000 nM and insignificant activity at β2)” value on α1A adrenergic receptor is on record as “selective α1A receptor agonist”.
With `CC(Oc1ccccc1/C=N/O)C1=NCCN1` (centres unmarked) [V], the EC50 on α2A adrenergic receptor is 277 nM; on β2 adrenergic receptor, more than 63000 nM; at α1A adrenergic receptor (setting [1]) it was 32.6 nM. The “selectivity of agonism (α1A and/or α2A EC50 less than 1,000 nM and insignificant activity at β2)” value at α1A adrenergic receptor was “selective α1A and α2A receptor agonist”.
